Experiment [1] concerns the target T1, OXA-23 (Acinetobacter baumannii, UniProt Q9L4P2).
T1 construct: 5'-truncated (54 bp) E. coli-optimized blaOXA-23 gene
The experiment is described as follows: time-resolved crystal structures ([…] min soaks), ESI-LC/MS, nitrocefin competition kinetics. Format: biochemical.

Experiment [2] deals with T1, OXA-23. The experiment is described as follows: crystal structure of the acyl-enzyme complex ([…] min soak, […] meropenem). Type of experiment: binding.

Broadly, the Ki is a dissociation constant, usually derived from enzyme kinetics or from competition with a known ligand.

T1 sequence (Q9L4P2 19-273): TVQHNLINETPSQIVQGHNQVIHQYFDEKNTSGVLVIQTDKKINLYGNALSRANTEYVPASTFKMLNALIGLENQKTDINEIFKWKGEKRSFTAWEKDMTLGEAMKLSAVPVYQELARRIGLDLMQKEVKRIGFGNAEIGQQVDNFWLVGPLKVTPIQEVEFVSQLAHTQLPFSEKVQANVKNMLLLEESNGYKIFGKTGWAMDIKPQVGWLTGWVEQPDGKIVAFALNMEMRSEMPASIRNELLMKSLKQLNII

In the case of `C[C@@H](O)[C@H]1C(=O)N2C(C(=O)O)=C(S[C@@H]3CN[C@H](C(=O)N(C)C)C3)C[C@]12C` [NA-1-157], the Ki at OXA-23 [1] is 590 ± 20 nM.
`C[C@@H](O)[C@H]1C(=O)N2C(C(=O)O)=C(S[C@@H]3CN[C@H](C(=O)N(C)C)C3)[C@H](C)[C@H]12` [meropenem]: the “crystal structure of the acyl-enzyme complex (6 min soak, 20 mM meropenem)” value on OXA-23 [2] is “In the OXA-23–meropenem acyl-enzyme complex, meropenem is covalently attached to the Ser70 side chain”.
